From patent publication US9730944B2, “Antiviral activity of novel bicyclic heterocycles” (priority 2010, dated 2017)
Converted amounts (≈) assume the structure as drawn. Like-named read-outs stand apart in the source and are kept apart here.

How the values were obtained:
HIV-2 strain (ROD) = test: Inhibition of replication of HIV-2 (ROD strain) in MT-4 cells, MTT assay; format: cell-based; conditions: Human immunodeficiency virus 2, MT4, 120 h; MT-4 cells, MTT assay, five days after infection, 50% protection from cytopathic effect; read-out: EC50 (μM) HIV-2 (ROD)
in vitro [1] = conditions: human, PV CC50
enterovirus (EV71) = test: Enterovirus (EV71) antiviral assay in RD cells; format: cell-based
poliovirus (PV type 1) = test: microbe, parasite or virus in culture; format: cell-based; conditions: Enterovirus C, read-out: PV-1 EC50
hRV-15 = test: Rhinovirus type 15 antiviral assay in Hela Rh cells, MTS readout; format: cell-based, Human rhinovirus
hRV-29 = test: Rhinovirus type 29 antiviral assay in Hela Rh cells, MTS readout; format: cell-based; conditions: Human rhinovirus sp., HRV29, HeLa Rh, methodology of example 451; read-out: EC50 (μg/ml) hRV-29
hRV-9 = test: Rhinovirus type 9 antiviral assay in Hela Rh cells, MTS readout; format: cell-based, Human rhinovirus
hRV-2 = test: Rhinovirus type 2 antiviral assay in Hela Rh cells, MTS readout; format: cell-based, Human rhinovirus
HIV-1 strain IIIB = test: Inhibition of replication of HIV-1 (IIIB strain) in MT-4 cells, MTT assay; format: cell-based; conditions: Human immunodeficiency virus 1, IIIB, MT4, 120 h; MT-4 cells, MTT assay, five days after infection, 50% protection from cytopathic effect; read-out: EC50 (μM) HIV-1 (IIIB)
hRV-59 = test: Rhinovirus type 59 antiviral assay in Hela Rh cells, MTS readout; format: cell-based; conditions: Human rhinovirus sp., HRV59, HeLa Rh; methodology of example 451; read-out: EC50 (μg/ml) hRV-59
coxsackie virus (CVA9) = test: Coxsackievirus (CVA9) antiviral assay in BGM cells; format: cell-based; conditions: Enterovirus B
hRV-89 = test: Rhinovirus type 89 antiviral assay in Hela Rh cells, MTS readout; format: cell-based, Human rhinovirus; conditions: Rhinovirus A, HRV89, HeLa Rh; methodology of example 451; read-out: EC50 (μg/ml) hRV-89
in vitro [2] = conditions: African green monkey
in vitro [3] = conditions: African green monkey, PV CC50
hRV-39 = test: Rhinovirus type 39 antiviral assay in Hela Rh cells, MTS readout; format: cell-based, Human rhinovirus
hRV-63 = test: Rhinovirus type 63 antiviral assay in Hela Rh cells, MTS readout; format: cell-based, Human rhinovirus
hRV-70 = test: Rhinovirus type 70 antiviral assay in Hela Rh cells, MTS readout; format: cell-based, Human rhinovirus
in vitro [4] = conditions: human
hRV-72 = test: Rhinovirus type 72 antiviral assay in Hela Rh cells, MTS readout; format: cell-based, Human rhinovirus
hRV-14 = test: Rhinovirus type 14 antiviral assay in Hela Rh cells, MTS readout; format: cell-based, Human rhinovirus
hRV-86 = test: Rhinovirus type 86 antiviral assay in Hela Rh cells, MTS readout; format: cell-based, Human rhinovirus
[5] = system: Enteric Cytopathic Human Orphan virus (ECHO11); test: organism not typed; format: cell-based; conditions: BGM, read-out: EC50 (ECHO virus)
hRV-45 = test: Rhinovirus type 45 antiviral assay in Hela Rh cells, MTS readout; format: cell-based, Human rhinovirus
hRV-42 = test: Rhinovirus type 42 antiviral assay in Hela Rh cells, MTS readout; format: cell-based, Human rhinovirus
[6] = Cytostatic/cytotoxic effect in Hela Rh cells (rhinovirus methodology, MTS); conditions: human, CC50 (μg/ml), rhinovirus methodology of example 451
hRV-41 = test: Rhinovirus type 41 antiviral assay in Hela Rh cells, MTS readout; format: cell-based, Human rhinovirus
poliovirus (PV type 3) = test: microbe, parasite or virus in culture; format: cell-based; conditions: Enterovirus C, read-out: PV-3 EC50
hRV-85 = test: Rhinovirus type 85 antiviral assay in Hela Rh cells, MTS readout; format: cell-based, Human rhinovirus
[7] = Cytotoxicity in RD cells (enterovirus methodology); conditions: human
[8] = Cytotoxicity reported with the coxsackievirus (CVA9) assay; conditions: African green monkey
poliovirus (PV type 2) = test: microbe, parasite or virus in culture; format: cell-based; conditions: Enterovirus C, read-out: PV-2 EC50
Vero cells = conditions: African green monkey
Hela H cells = conditions: human
Hela Rh cells = test: Cytostatic/cytotoxic effect in Hela Rh cells (rhinovirus methodology, MTS)

SMILES: Nc1nc(N2CCN(C(=O)COc3ccc(Cl)cc3)CC2)c2nc(-c3ccc(F)cc3)sc2n1 [Example 45, 1-(4-(5-amino-2-(4-fluorophenyl)thiazolo[5,4-d]pyrimidin-7-yl)piperazin-1-yl)-2-(4-chlorophenoxy)ethanone]
- EC50 (HIV-2 strain (ROD)): 0.45 µM
- CC50 (in vitro [1]): > 50 µg/mL
- EC50 (enterovirus (EV71)): 0.0695 µg/mL (≈ 0.139 µM)
- EC50 (poliovirus (PV type 1); HeLa): < 0.023 µg/mL
- EC50 (poliovirus (PV type 1); Vero): < 0.023 µg/mL
- EC50 (hRV-15; Human rhinovirus sp., HRV15, HeLa Rh, methodology of example 451, read-out: EC50 (μg/ml) hRV-15): 0.017 µg/mL (≈ 0.0341 µM)
- EC50 (hRV-29): 0.011 µg/mL (≈ 0.022 µM)
- EC50 (hRV-9; Human rhinovirus sp., HRV9, HeLa Rh, methodology of example 451, read-out: EC50 (μg/ml) hRV-9): 0.0082 µg/mL (≈ 0.0164 µM)
- EC50 (hRV-2; Rhinovirus A, HRV2, HeLa Rh, methodology of example 451, read-out: EC50 (μg/ml) hRV-2): 0.0095 µg/mL (≈ 0.019 µM)
- EC50 (HIV-1 strain IIIB): 0.73 µM
- EC50 (hRV-59): 0.02 µg/mL (≈ 0.0401 µM)
- EC50 (coxsackie virus (CVA9)): 0.29 µg/mL (≈ 0.581 µM)
- EC50 (hRV-89): 0.021 µg/mL (≈ 0.0421 µM)
- CC50 (in vitro [2]): 28.7 µg/mL (≈ 57.5 µM)
- CC50 (in vitro [3]): > 150 µg/mL
- EC50 (hRV-39; Human rhinovirus sp., HRV39, HeLa Rh, methodology of example 451, read-out: EC50 (μg/ml) hRV-39): 0.012 µg/mL (≈ 0.024 µM)
- EC50 (hRV-63; Human rhinovirus sp., HRV63, HeLa Rh, methodology of example 451, read-out: EC50 (μg/ml) hRV-63): 0.018 µg/mL (≈ 0.0361 µM)
- EC50 (hRV-70; Human rhinovirus sp., HRV70, HeLa Rh, methodology of example 451, read-out: EC50 (μg/ml) hRV-70): 0.0718 µg/mL (≈ 0.144 µM)
- CC50 (in vitro [4]): 149 µM
- EC50 (hRV-72; Human rhinovirus sp., HRV72, HeLa Rh, methodology of example 451, read-out: EC50 (μg/ml) hRV-72): 0.0736 µg/mL (≈ 0.148 µM)
- EC50 (hRV-14; Rhinovirus B, HRV14, HeLa Rh, methodology of example 451, read-out: EC50 (μg/ml) hRV-14): 0.0701 µg/mL (≈ 0.14 µM)
- EC50 (hRV-86; Human rhinovirus sp., HRV86, HeLa Rh, methodology of example 451, read-out: EC50 (μg/ml) hRV-86): 0.047 µg/mL (≈ 0.0942 µM)
- EC50 [5]: 0.076 µg/mL (≈ 0.152 µM)
- EC50 (hRV-45; Human rhinovirus sp., HRV45, HeLa Rh, methodology of example 451, read-out: EC50 (μg/ml) hRV-45): 0.198 µg/mL (≈ 0.397 µM)
- EC50 (hRV-42; Human rhinovirus sp., HRV42, HeLa Rh, methodology of example 451, read-out: EC50 (μg/ml) hRV-42): 0.0142 µg/mL (≈ 0.0285 µM)
- CC50 [6]: 21.7 µg/mL (≈ 43.5 µM)
- EC50 (hRV-41; Human rhinovirus sp., HRV41, HeLa Rh, methodology of example 451, read-out: EC50 (μg/ml) hRV-41): 0.0129 µg/mL (≈ 0.0259 µM)
- EC50 (poliovirus (PV type 3); HeLa): < 0.023 µg/mL
- EC50 (poliovirus (PV type 3); Vero): < 0.023 µg/mL
- EC50 (hRV-85; Human rhinovirus sp., HRV85, HeLa Rh, methodology of example 451, read-out: EC50 (μg/ml) hRV-85): 0.0295 µg/mL (≈ 0.0591 µM)
- CC50 [7]: 27.8 µg/mL (≈ 55.7 µM)
- CC50 [8]: 25.7 µg/mL (≈ 51.5 µM)
- EC50 (poliovirus (PV type 2); HeLa): < 0.023 µg/mL
- EC50 (poliovirus (PV type 2); Vero): < 0.023 µg/mL

SMILES: O=C(COc1ccc(Cl)cc1)N1CCN(c2ncnc3oc(-c4ccc(F)cc4)nc23)CC1 [Example 167, 2-(4-chlorophenoxy)-1-(4-(2-(4-fluorophenyl)oxazolo[5,4-d]pyrimidin-7-yl)piperazin-1-yl)ethanone]
- EC50 (HIV-2 strain (ROD)): > 50 µM
- CC50 (in vitro [1]): > 50 µg/mL
- PV CC50 (Vero cells): 105.69 µg/mL
- EC50 (poliovirus (PV type 1); HeLa): > 50 µg/mL
- EC50 (poliovirus (PV type 1); Vero): > 50 µg/mL
- EC50 (HIV-1 strain IIIB): > 50 µM
- CC50 (in vitro [3]): > 150 µg/mL
- CC50 (in vitro [4]): > 50 µM
- PV CC50 (Hela H cells): 31.91 µg/mL
- EC50 (poliovirus (PV type 3); HeLa): > 50 µg/mL
- EC50 (poliovirus (PV type 3); Vero): > 50 µg/mL
- EC50 (poliovirus (PV type 2); HeLa): ≥ 50 µg/mL

SMILES: Nc1nc(N2CCN(C(=O)COc3ccc(Br)cc3)CC2)c2sc(Cc3ccc(F)cc3)nc2n1 [Example 231, 1-(4-(5-amino-2-(4-fluorobenzyl)thiazolo[5,4-c]pyrimidin-7-yl)piperazin-1-yl)-2-(4-bromophenoxy)ethanone]
- hRV-15 EC50 (hRV-15; Hela Rh cells): =1.38 μg/ml
- hRV-9 EC50 (hRV-9; Hela Rh cells): =0.55 μg/ml
- hRV-2 EC50 (hRV-2; Hela Rh cells): =0.51 μg/ml
- hRV-39 EC50 (hRV-39; Hela Rh cells): =0.34 μg/ml
- hRV-63 EC50 (hRV-63; Hela Rh cells): =2.32 μg/ml
- hRV-70 EC50 (hRV-70; Hela Rh cells): =4.60 μg/ml
- hRV-72 EC50 (hRV-72; Hela Rh cells): =4.95 μg/ml
- hRV-14 EC50 (hRV-14; Hela Rh cells): =1.20 μg/ml
- hRV-86 EC50 (hRV-86; Hela Rh cells): =4.42 μg/ml
- hRV-45 EC50 (hRV-45; Hela Rh cells): =2.22 μg/ml
- hRV-42 EC50 (hRV-42; Hela Rh cells): =1.26 μg/ml
- CC50 (Hela Rh cells): >50.00 µg/mL
- hRV-41 EC50 (hRV-41; Hela Rh cells): =0.89 μg/ml
- hRV-85 EC50 (hRV-85; Hela Rh cells): =2.21 μg/ml
